How the values were obtained:
[1] = Plasma pharmacokinetics of E5564 after single bolus intravenous injection; format: in vivo, dogs; conditions: single bolus i.v.
Method: FIG. 3 is a graph showing the plasma levels of E5564 after a single bolus injection. After bolus administration of 0.1 mg/kg E5564 (∘), 0.3 mg/kg E5564 (□), and 1 mg/kg E5564 (▪), blood was drawn and analyzed for E5564 concentration by extraction and analysis by HPLC. Each value represents the mean±S.E.M. of three animals. No drug was detectable in samples drawn prior to dosing.
(§1) This long-term presence of unmodified E5564 in blood initially led us to believe that active drug was likely present for very long periods of time after cessation of drug administration.

[2] = Plasma pharmacokinetics of E5564 after 72 hours intravenous infusion; format: in vivo, beagle dogs; conditions: 72 h i.v. infusion; for T½: after end of infusion
Method: FIG. 4 is a graph showing the plasma levels of E5564 during and after 72 hours of intravenous infusion. […] At the indicated times, blood was drawn and analyzed for E5564 concentration by extraction and analysis by HPLC. Each value represents the mean±S.E.M. of three animals. No drug was detectable in samples drawn prior to dosing.
as §1

LPS endotoxin = assay: Pharmacodynamic analysis of E5564 in vivo: LPS challenge in dogs, plasma TNF-α by bioassay; design: species or system beagle dogs; conditions: for TNF-α at 1 hour / TNF-α at 2 hours: plasma; for TNF-α at 1 hour: 1 h after LPS 300 ng/kg i.v.; for TNF-α at 2 hours: 2 h after LPS 300 ng/kg i.v.
Method: FIG. 1 is a graph showing the anti-endotoxin activity of E5564 after a single bolus injection. LPS endotoxin (300 ng/kg) was injected intravenously into untreated dogs (∘) or simultaneously with 0.1 mg/kg E5564 (Δ) one hour after E5564 administration (□) or three hours after E5564 administration (●). Blood was drawn and analyzed for TNF-α concentration by bioassay, as is described in the Materials and Methods section, below. Each value represents the mean±S.E.M. of four animals.
In general, the candidate antagonist is administered to a test species of animal, and an appropriate dose of endotoxin (lipopolysaccharide (LPS)) is administered to test the ability of the candidate antagonist to block the effects of endotoxin. Some of the experiments described below use an in vivo challenge of LPS given intravenously both during and after intravenous infusion of E5564. Activity of an antagonist can also be assayed ex vivo by removing blood samples from animals treated with the candidate antagonist and testing that blood to determine if the drug is active and/or present in sufficient quantities to inhibit cellular activation by LPS. In both assays, activity of the antagonist is quantitated by analysis of the cytokines induced by LPS administration. In addition, other physiological symptoms of endotoxin poisoning can be used as readouts of activity. Studies described herein use TNF-α and/or IL-6 as readouts of cellular activation, but a variety of other cytokines and cellular mediators can also be used for this purpose.
As is shown in FIG. 1 and Table 1, delivery of 300 ng/kg of LPS into beagle dogs (“control” in FIG. 1) elicits a strong, reproducible response, as measured by levels of plasma TNF-α. […] This short activity lifetime (i.e., pharmacodynamic half-life) is an unexpected result, as the pharmacokinetic half-life of E5564 is extremely long in comparison (see below). Thus, while the unmodified (unmetabolized) drug appears to remain in circulation for a relatively long period of time, it loses activity. Because of this unexpected discovery, we have chosen to administer E5564 by infusion.
E5564 was synthesized by Eisai Research Institute of Boston, Andover, Mass., U.S.A. E5564 drug product was manufactured at the Eisai Preclinical Laboratory (Tsukuba, Japan) by dissolving 35.4 mg of drug substance in 52.1 ml 0.01 N NaOH, stirring for one hour at room temperature, and diluting into phosphate-buffered lactose. After adjusting the pH to 7.3 and diluting to a final concentration of 0.1 mg/ml E5564, the solution was filter-sterilized and lyophilized.
Escherichia coli LPS (Serotype 0111:B4; phenol extracted, Cat. # L-2630) was purchased from Sigma Chemical Co. Ltd., St. Louis, Mo., U.S.A. Lyophylized E5564 was solubilized in 5 ml of sterile water (Otsuka Pharm. Co. Ltd., Tokyo, Japan). LPS was weighed to an accuracy of 1/10 mg and solubilized in 5% glucose (Otsuka Pharm. Co. Ltd., Tokyo, Japan). The LPS solution was sonicated with a bath-type sonicator for 15 minutes after which aliquots were immediately prepared and stored at −20° C. Prior to use, the solution was sonicated for one or two minutes, and then dilutions were prepared in 5% glucose.
Nine month-old beagles were obtained from Kawashima-shoji Co. Ltd., Gifu, Japan) and housed in stainless steel wire cages (W 800 mm×D 680 mm×H 680 mm; one dog per cage) in a room with a constant temperature of 20-24° C., humidity of 45-65%, and 12 hour light-dark cycle. The animals were provided with pellet food (DS, Oriental Yeast Co., Tokyo, Japan) and water ad libitum. LPS endotoxin (300 ng/0.1 ml/kg) was injected into the vein of the right foreleg at a rate of 1-2 ml/minute, and E5564 was injected into the vein of the left foreleg at a rate of 10-20 ml/minute.
Immediately before or 1, 2, or 4 hours after intravenous injection of LPS and E5564, 1.5 ml of blood was drawn from the left cephalic vein. […]

[3] = Relative toxicity of E5564 versus B531 (animal studies); conditions: E5564 compared with B531
[4] = 0.1 mg/kg E5564 bolus one hour before LPS
[5] = 0.1 mg/kg E5564 bolus three hours before LPS

CCCCCC/C=C\CCCCCCCCCC(=O)N[C@H]1[C@H](OC[C@H]2O[C@H](OP(=O)(O)O)[C@H](NC(=O)CC(=O)CCCCCCCCCCC)[C@@H](OCCCCCCCCCC)[C@@H]2O)O[C@H](COC)[C@@H](OP(=O)(O)O)[C@@H]1OCC[C@@H](CCCCCCC)OC [E5564, α-D-Glucopyranose, 3-O-decyl-2-deoxy-6-O-[2-deoxy-3-O-[(3R)-3-methoxydecyl)-6-O-methyl-2-[[(11Z)-1-oxo-11-octadecenyl)amino]-4-O-phosphono-β-D-glucopyranosyl]-2-[(1,3-dioxotetradecyl)amino]-,1-(dihydrogen phosphate)]
AUC ([1]; 0.1 mg/kg dose): 71.8255 ± 1.981 µg·h/mL | T½ ([1]; 0.1 mg/kg dose): 41.7 ± 2.7 h | AUC ([1]; 0.3 mg/kg): 270.8972 µg·h/mL | T½ ([1]; 0.3 mg/kg): 50.4 ± 2.2 h | AUC ([1]; 1 mg/kg): 743.5446 µg·h/mL | T½ ([1]; 1 mg/kg): 46.4 ± 2.7 h | AUC0-144 hours ([2]; dose 0.1 mg/kg, female): 790 ± 51 µg·h/mL | C72 hours ([2]; dose 0.1 mg/kg, female): 10.35 ± 0.93 µg/mL | AUC0-144 hours ([2]; dose 0.1 mg/kg, male): 1069 ± 139 µg·h/mL | C72 hours ([2]; dose 0.1 mg/kg, male): 13.07 ± 1.22 µg/mL | AUC0-144 hours ([2]; dose 0.3 mg/kg, female): 2616 ± 737 µg·h/mL | C72 hours ([2]; dose 0.3 mg/kg, female): 32.40 ± 5.72 µg/mL | AUC0-144 hours ([2]; dose 0.3 mg/kg, male): 3309 ± 485 µg·h/mL | C72 hours ([2]; dose 0.3 mg/kg, male): 41.29 ± 7.18 µg/mL | AUC0-144 hours ([2]; dose 1 mg/kg, female): 29642 ± 1514 µg·h/mL | C72 hours ([2]; dose 1 mg/kg, female): 393.9 ± 14.2 µg/mL | AUC0-144 hours ([2]; dose 1 mg/kg, male): 27114 ± 5737 µg·h/mL | C72 hours ([2]; dose 1 mg/kg, male): 366 ± 69.3 µg/mL | T½ ([2]; dose 0.1 mg/kg, female): 40.9 ± 9.5 h | T½ ([2]; dose 0.1 mg/kg, male): 38.4 ± 4.5 h | T½ ([2]; dose 0.3 mg/kg, female): 38.0 ± 11.6 h | T½ ([2]; dose 0.3 mg/kg, male): 39.9 ± 11.2 h | T½ ([2]; dose 1 mg/kg, female): 32.0 ± 2.8 h | T½ ([2]; dose 1 mg/kg, male): 35.1 ± 8.7 h | Blocking of LPS challenge (plasma TNF-α) (LPS endotoxin; 0.1 mg/kg E5564 given at the same time as LPS 300 ng/kg): completely effective | Response to LPS (% of control) (LPS endotoxin; E5564 one hour before LPS): 0 % of control | Sum of TNF-α (AUC) (LPS endotoxin; E5564 one hour before LPS): 0 units/ml | Inhibition of LPS response (LPS endotoxin; E5564 simultaneously with LPS): 100 | Response to LPS (% of control) (LPS endotoxin; E5564 simultaneously with LPS): 0 % of control | Response to LPS (% of control) (LPS endotoxin; E5564 three hours before LPS): 52 % of control | Activity of the endotoxin antagonist remaining (LPS endotoxin; LPS administered three hours after 0.1 mg/kg E5564): about 48 % of its original activity | TNF-α at 1 hour (LPS endotoxin; [4]): 0 units/ml | TNF-α at 1 hour (LPS endotoxin; 0.1 mg/kg E5564 bolus simultaneously with LPS, four dogs): 0 units/ml | TNF-α at 1 hour (LPS endotoxin; [5]): 1353 ± 340 units/ml | TNF-α at 2 hours (LPS endotoxin; [4]): 0 units/ml | TNF-α at 2 hours (LPS endotoxin; 0.1 mg/kg E5564 bolus simultaneously with LPS): 0 units/ml | TNF-α at 2 hours (LPS endotoxin; [5]): 190 ± 113 units/ml | Toxicity relative to B531 [3]: about twenty-fold less toxic than B531

Source: patent US20050215517A1, “Use of an anti-endotoxin drug in the prevention and treatment of disease” (priority 1999, published 2005)
